Consider four molecules from patent US8410337B2, “Plant tubby-like proteins” (Academia Sinica, priority 2003, dated 2013).

The test system of assay [1] is Arabidopsis seeds. In words: Seed germination on media containing ABA. The conditions noted are these: 1 μM ABA. The format is in vivo, Arabidopsis thaliana. Here is the method: (§1) All seeds of the above-described lines were surface sterilized with 70% ethanol for 30 s and then with 6% household bleach for 5 min before being washed five times with sterile water. For aseptic growth, they were plated on solid medium containing Murashige and Skoog salts (Invitrogen), vitamins (Duchefa), 0.7% phytoagar (Invitrogen), and 1% sucrose and transferred to a tissue culture room. For soil growth, seedlings were transferred into individual pots 8-10 days after germination and maintained in the growth chamber. Plants were grown at 22° C. under a 16-hr-light/8-hr-dark photoperiod aseptically or on soil.
To determine whether the transgenic plants display altered ABA responses, the above-described lines were germinated on media containing various concentrations of ABA. Seeds collected at the same or similar times were used. After surface-sterilization, sterile seeds were suspended in 0.15% agarose, and kept in the dark at 4° C. for 3 days to break residual dormancy. The seeds were then plated on agar plates in six replicates containing no ABA or 0.25, 0.5, 0.75, or 1.0 μM ABA in 12-cm plastic petri dishes. Each agar plate was divided into seven sections, and 50 seeds of WT and AtTLP9 transgenic seeds were plated on each section. A seed was regarded as germinated when the radicle protruded through the seed coat.

The subject of assay [2] is Arabidopsis seedlings. In words: Seedling growth and greening on MS agar with ABA. The settings on record: 1 μM ABA and 1% sucrose. It is filed as in vivo, Arabidopsis thaliana. The protocol:
as §1
In contrast, under the same conditions, attlp9-1 and attlp9-2 plants continued to grow and about 45% of the seedlings continued to develop true leaves, although at slower rates than abi4-1 mutant does.

In assay [3] the test system is AtTLP10 gene expression. The conditions noted are these: channel 2 treated vs channel 1 control; cited from earlier work.
Assay [4] has as its system AtTLP7 gene expression. The conditions noted are these: channel 2 treated vs channel 1 control; cited from earlier work.
Assay [5] concerns the target T1, ASK1 (Arabidopsis thaliana, UniProt Q39255).
T1 construct: fragment containing the entire coding region of ASK1 (At1g75950); expressed in transfected cells; host or cells: Saccharomyces cerevisiae strain YRG-2
T1 sequence (Q39255 1-160): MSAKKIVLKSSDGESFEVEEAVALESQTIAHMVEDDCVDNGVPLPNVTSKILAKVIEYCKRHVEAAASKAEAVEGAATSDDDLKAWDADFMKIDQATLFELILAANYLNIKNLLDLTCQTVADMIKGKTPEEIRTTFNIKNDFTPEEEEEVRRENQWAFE
T1 sequence (Q9SQU1 1-380 partner): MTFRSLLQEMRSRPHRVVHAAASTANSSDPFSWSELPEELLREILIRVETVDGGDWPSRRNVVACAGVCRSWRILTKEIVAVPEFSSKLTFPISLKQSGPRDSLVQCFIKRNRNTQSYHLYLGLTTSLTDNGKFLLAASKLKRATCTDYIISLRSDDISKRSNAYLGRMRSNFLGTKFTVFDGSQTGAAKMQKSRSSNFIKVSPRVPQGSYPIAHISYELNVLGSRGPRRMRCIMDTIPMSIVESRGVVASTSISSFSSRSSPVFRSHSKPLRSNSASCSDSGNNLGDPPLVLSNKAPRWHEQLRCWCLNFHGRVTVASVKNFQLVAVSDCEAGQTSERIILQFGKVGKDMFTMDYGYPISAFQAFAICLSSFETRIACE
In words: Yeast two-hybrid analysis. It is filed as binding. The settings on record: AtTLP9 in pBD-GAL4 Cam, ASK1 in pAD-GAL4-2.1, yeast strain YRG-2. From the text: To test whether AtTLP could interact with ASK1, AtTLP9 was examined by the yeast two-hybrid analysis. Yeast two-hybrid vectors, pAD-GAL4-2.1 and pBD-GAL4 Cam (Stratagene, La Jolla, Calif.), were used for C-terminal GAL4 AD and BD fusion constructions, respectively. A 1.1-kb SalI-PstI fragment containing the entire coding region of AtTLP9 was cloned into the SalI-PstI site of the pBD-GAL4 Cam vector. A 480-bp EcoRI-PstI fragment containing the entire coding region of ASK1 (At1g75950) was cloned into the EcoRI-PstI site of the pAD-GAL4-2.1 vector. The yeast strain YRG-2 [MATa ura3-52 his3-200 ade2-101 lys2-801 trp1-901 leu2-3,112 ga14-542 ga180-538 LYS2::GAL1UAS-GAL1TATA-HIS3 URA3::(GAL43×17mer)-CYC1TATA-lacZ] was co-transformed with the two vectors. The Y2H analysis was performed according to the manufacturer's recommendations (Stratagene).

In the case of `CC1=CC(=O)CC(C)(C)[C@@]1(O)/C=C/C(C)=C\C(=O)O` [ABA, Abscisic acid], the germination rate in assay [1] (attlp9-1 and attlp9-2 mutant seeds) is recorded as roughly 50%; in assay [1] (sense lines seeds (35S::AtTLP9 overexpression)), “less than 10%”. In addition, the “seeds able to germinate” value in assay [1] (wild-type seeds) is given as “about 30%”. The “seedlings showing developmental arrest” value in assay [2] (10-d-old seedlings of sense lines) is 90%. Moreover, the “seedlings continuing to develop true leaves” value in assay [2] (attlp9-1 and attlp9-2 plants) is “about 45%”.

`O=C(O)Cc1cccc2ccccc12` [NAA]: the “Ch2/Ch1 Normalized (Mean) AtTLP10” value in assay [3] is 2.22. Besides, in assay [4], the “Ch2/Ch1 Normalized (Mean) AtTLP7” value is on record as 0.46.

Turning to `O=C(O)Cc1c[nH]c2ccccc12` [IAA], the “Ch2/Ch1 Normalized (Mean) AtTLP7” value in assay [4] is reported as 2.21.

B1: AtTLP9: Arabidopsis TUBBY-like protein, polypeptide SEQ ID NO: 9 (protein, listed as Arabidopsis sp.)
chain: T1 sequence (Q9SQU1 1-380 partner)
As to B1, in assay [5], the “interaction with ASK1” value is given as “physically interacts with ASK1”.
